Experimental data published in ChEMBL document CHEMBL5465560, “Selectivity Literature for EUbOPEN Chemogenomic Library” (2024).

Experiments:
[1] = target: T1, Mitogen-activated protein kinase kinase kinase 19 (Homo sapiens) (UniProt Q56UN5); assay: Selectivity interaction (KinomeScan (DiscoverX)) EUB0001079a MAP3K19; settings: at 1 µM
T1 sequence (whole entry): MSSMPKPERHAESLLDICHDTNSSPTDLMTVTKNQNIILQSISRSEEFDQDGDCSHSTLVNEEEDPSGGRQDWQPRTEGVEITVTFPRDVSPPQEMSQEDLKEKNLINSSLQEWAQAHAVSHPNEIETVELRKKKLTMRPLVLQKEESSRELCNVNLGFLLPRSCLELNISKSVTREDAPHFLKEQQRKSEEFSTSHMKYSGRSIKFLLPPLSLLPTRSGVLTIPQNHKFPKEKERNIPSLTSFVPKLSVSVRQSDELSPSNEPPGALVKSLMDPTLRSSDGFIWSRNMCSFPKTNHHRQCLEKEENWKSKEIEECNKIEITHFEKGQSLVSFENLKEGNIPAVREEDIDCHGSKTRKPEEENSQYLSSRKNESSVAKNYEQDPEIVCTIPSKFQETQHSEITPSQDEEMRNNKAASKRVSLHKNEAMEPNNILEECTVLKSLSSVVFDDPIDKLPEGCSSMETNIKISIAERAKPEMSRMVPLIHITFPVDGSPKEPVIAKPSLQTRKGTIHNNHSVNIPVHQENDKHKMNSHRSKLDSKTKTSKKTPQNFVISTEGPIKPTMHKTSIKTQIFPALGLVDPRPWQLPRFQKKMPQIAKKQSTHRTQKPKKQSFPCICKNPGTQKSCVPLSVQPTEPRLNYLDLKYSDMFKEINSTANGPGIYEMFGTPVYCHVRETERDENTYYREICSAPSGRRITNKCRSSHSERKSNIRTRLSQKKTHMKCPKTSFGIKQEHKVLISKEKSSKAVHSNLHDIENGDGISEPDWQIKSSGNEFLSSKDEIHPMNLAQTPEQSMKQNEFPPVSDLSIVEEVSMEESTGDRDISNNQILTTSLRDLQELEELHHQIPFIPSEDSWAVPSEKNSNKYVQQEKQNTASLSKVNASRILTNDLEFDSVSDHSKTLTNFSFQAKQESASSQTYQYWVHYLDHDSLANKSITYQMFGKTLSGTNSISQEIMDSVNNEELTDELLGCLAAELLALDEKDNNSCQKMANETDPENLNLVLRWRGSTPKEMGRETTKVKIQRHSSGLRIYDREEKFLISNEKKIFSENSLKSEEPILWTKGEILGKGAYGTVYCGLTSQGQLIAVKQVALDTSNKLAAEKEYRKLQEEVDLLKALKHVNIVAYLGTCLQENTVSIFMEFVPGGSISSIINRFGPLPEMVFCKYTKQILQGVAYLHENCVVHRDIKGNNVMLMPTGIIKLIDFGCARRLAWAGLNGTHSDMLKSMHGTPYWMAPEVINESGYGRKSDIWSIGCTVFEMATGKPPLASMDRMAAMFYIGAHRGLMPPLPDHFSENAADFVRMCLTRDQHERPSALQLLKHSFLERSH

[2] = target: PAS domain-containing serine/threonine-protein kinase (Homo sapiens) (UniProt Q96RG2); assay: Selectivity interaction (Kinase panel (Invitrogen)) EUB0000639a PASK; settings: at 200 nM
[3] = target: Epidermal growth factor receptor (Homo sapiens, UniProt P00533); assay: Selectivity interaction (Kinase panel (Invitrogen)) EUB0000639a EGFR; settings: at 200 nM
Sequence of Epidermal growth factor receptor (P00533 whole entry): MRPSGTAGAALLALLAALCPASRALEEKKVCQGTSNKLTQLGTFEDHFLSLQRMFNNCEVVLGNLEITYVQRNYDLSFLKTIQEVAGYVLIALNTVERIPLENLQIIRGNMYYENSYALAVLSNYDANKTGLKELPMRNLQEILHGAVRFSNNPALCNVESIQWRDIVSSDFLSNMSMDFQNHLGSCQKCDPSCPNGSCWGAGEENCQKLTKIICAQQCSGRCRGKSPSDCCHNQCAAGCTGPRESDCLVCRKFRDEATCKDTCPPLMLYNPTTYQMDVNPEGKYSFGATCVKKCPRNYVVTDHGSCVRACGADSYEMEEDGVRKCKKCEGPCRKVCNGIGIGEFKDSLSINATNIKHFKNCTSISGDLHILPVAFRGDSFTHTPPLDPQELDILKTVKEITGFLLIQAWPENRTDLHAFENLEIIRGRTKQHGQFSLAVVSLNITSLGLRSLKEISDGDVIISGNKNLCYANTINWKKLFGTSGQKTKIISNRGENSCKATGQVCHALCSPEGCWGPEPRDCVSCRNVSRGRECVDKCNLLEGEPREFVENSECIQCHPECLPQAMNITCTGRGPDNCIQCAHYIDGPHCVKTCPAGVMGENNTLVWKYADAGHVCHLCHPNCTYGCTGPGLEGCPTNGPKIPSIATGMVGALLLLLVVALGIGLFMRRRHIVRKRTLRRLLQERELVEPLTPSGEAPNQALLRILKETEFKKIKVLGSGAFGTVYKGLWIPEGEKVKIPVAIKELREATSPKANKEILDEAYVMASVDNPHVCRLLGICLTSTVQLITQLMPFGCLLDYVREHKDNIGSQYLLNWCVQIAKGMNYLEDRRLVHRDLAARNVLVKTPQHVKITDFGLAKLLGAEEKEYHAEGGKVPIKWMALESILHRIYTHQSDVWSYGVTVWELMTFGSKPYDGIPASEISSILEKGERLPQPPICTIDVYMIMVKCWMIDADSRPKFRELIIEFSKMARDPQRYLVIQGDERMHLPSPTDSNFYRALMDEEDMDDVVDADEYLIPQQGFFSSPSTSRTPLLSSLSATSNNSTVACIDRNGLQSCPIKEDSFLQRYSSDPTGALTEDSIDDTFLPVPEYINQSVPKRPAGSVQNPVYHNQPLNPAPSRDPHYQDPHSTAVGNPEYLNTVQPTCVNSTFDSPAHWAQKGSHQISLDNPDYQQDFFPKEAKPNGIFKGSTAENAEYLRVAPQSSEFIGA

[4] = target: T2, Serine/threonine-protein kinase Nek5 (Homo sapiens) (UniProt Q6P3R8); assay: Selectivity interaction (KinomeScan (DiscoverX)) EUB0000092b NEK5; settings: at 10 µM
T2 sequence (whole entry): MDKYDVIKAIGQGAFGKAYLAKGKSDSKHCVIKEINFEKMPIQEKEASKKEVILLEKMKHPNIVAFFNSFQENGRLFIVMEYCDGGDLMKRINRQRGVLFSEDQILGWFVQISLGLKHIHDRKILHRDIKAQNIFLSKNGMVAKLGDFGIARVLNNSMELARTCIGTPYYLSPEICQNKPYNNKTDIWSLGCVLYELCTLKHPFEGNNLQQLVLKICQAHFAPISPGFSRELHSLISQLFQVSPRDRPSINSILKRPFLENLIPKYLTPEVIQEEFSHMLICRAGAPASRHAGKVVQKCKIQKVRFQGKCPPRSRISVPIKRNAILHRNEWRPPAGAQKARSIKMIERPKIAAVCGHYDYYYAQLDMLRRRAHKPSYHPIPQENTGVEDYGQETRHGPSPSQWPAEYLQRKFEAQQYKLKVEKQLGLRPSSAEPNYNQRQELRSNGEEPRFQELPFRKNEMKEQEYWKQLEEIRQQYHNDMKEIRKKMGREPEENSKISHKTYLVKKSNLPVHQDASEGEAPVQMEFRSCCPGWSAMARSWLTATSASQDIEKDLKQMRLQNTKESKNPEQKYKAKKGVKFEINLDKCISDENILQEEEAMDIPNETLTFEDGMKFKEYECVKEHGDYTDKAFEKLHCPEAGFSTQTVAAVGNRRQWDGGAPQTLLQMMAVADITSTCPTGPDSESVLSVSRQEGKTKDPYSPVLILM

[5] = target: Cyclin-dependent kinase 5/CDK5 activator 1 (Homo sapiens) (UniProt Q00535+Q15078); assay: Selectivity interaction (SelectScreen profiling (Invitrogen)) EUB0000607a CDK5; type: protein-complex assay; settings: at 2 µM
Sequence of Cyclin-dependent kinase 5/CDK5 activator 1 (Homo sapiens) (Q00535 whole entry): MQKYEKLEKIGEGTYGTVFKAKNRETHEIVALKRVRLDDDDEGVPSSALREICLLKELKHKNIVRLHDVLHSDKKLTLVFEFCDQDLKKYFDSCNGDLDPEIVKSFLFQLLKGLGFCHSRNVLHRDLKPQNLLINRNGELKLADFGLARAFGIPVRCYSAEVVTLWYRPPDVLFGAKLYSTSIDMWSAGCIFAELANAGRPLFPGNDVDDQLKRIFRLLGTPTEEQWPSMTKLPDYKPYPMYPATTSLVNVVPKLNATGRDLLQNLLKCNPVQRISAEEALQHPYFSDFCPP
Sequence of Cyclin-dependent kinase 5/CDK5 activator 1 (Homo sapiens) (Q15078 99-307 partner limits assumed): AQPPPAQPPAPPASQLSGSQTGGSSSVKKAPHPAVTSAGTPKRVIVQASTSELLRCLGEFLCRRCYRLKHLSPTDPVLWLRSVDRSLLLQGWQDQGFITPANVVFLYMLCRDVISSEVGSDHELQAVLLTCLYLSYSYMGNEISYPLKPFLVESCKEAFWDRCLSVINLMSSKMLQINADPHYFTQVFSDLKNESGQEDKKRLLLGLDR

[6] = target: Vascular endothelial growth factor receptor 3 (Homo sapiens, UniProt P35916); assay: Selectivity interaction (KinomeScan (DiscoverX)) EUB0000607a FLT4; settings: at 10 µM
Sequence of Vascular endothelial growth factor receptor 3 (P35916 whole entry): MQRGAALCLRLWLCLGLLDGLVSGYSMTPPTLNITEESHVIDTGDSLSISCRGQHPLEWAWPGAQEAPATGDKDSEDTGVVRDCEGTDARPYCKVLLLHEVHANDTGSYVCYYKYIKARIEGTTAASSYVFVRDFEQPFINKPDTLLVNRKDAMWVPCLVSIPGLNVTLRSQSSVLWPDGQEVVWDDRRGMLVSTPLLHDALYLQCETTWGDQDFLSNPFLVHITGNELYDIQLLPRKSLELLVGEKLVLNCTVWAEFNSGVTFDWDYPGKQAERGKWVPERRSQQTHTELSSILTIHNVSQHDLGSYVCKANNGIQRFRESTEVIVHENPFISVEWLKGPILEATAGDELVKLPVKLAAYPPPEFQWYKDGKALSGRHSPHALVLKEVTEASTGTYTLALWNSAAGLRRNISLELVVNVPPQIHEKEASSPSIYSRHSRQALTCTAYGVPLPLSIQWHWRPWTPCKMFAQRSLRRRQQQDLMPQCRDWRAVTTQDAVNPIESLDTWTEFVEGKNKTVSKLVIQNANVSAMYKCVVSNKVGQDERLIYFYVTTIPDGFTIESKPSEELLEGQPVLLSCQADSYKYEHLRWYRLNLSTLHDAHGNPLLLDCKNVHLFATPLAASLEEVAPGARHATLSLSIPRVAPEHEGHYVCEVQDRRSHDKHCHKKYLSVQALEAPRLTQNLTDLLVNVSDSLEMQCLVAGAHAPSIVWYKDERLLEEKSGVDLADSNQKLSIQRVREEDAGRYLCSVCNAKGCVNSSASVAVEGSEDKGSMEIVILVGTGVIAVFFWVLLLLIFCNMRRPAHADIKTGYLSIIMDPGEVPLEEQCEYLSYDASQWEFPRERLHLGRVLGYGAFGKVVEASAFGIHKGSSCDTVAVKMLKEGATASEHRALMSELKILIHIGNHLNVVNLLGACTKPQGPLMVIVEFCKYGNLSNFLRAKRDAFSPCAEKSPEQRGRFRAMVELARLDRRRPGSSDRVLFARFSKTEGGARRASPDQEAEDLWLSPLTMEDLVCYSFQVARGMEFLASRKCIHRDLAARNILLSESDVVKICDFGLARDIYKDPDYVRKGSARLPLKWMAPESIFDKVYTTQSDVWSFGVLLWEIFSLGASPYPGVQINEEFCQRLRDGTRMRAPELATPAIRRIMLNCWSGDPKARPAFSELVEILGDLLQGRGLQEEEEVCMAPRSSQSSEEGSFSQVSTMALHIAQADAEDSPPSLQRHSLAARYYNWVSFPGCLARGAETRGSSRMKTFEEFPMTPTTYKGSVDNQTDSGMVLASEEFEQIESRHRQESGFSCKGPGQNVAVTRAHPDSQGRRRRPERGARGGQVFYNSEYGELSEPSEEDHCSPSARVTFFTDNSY

Mu-type opioid receptor = Mu-type opioid receptor (Homo sapiens, UniProt P35372); assay: Selectivity interaction (Panel of kinases, GPCRs, ion channels and transporters (enzymatic assay)) EUB0000223bCl OPRM1
Sequence of Mu-type opioid receptor (P35372 whole entry): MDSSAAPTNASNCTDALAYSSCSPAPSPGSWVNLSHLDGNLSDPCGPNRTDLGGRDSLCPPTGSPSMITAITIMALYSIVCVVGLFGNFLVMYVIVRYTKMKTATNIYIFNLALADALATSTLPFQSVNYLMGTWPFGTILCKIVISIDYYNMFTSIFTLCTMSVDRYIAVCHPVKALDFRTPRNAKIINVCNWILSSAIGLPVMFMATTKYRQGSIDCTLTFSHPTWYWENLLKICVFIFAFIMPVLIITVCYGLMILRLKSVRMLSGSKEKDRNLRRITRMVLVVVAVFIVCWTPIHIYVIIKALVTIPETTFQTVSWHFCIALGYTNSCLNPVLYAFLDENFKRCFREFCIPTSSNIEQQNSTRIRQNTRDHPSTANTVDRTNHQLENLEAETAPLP

[7] = target: Dual specificity protein kinase CLK3 (Homo sapiens, UniProt P49761); assay: Selectivity interaction (Kinase panel (Z-LYTE Assay)) EUB0001632a CLK3; settings: at 10 µM
Sequence of Dual specificity protein kinase CLK3 (P49761 whole entry, looked up): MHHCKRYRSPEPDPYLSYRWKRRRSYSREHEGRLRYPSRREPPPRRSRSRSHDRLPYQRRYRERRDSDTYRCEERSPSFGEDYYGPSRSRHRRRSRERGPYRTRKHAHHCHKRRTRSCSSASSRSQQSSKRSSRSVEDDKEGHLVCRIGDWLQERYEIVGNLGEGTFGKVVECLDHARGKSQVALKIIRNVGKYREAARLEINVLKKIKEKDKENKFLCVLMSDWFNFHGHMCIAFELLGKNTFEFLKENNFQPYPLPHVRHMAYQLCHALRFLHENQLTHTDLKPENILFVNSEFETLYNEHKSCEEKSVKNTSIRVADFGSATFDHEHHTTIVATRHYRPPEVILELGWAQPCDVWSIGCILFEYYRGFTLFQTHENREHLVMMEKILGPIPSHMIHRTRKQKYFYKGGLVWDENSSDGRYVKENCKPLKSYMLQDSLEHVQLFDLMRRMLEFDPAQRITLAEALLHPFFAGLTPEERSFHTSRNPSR

[8] = target: ALK tyrosine kinase receptor (Homo sapiens, UniProt Q9UM73); assay: Selectivity interaction (ProQinase) EUB0000171b ALK; settings: at 5 µM

`Nc1cnc(N2CCc3cc(S(=O)(=O)Nc4c(F)cc(Cl)cc4F)cc(N4CCCC4=O)c32)nc1` [TP-020n] gave a % of control [1] of 100%.
`CC[C@@H]1[C@H](F)C(=O)N[C@@H]1COc1nccc2cc(C(N)=O)c(OC)cc12` [ZIMLOVISERTIB] gave a % of inhibition [2] of 7.59% and a % of inhibition [3] of 3.43%.
`CCC(=O)N1CCN(c2ccc(-n3c(=O)ccc4cnc5ccc(-c6cnc7ccccc7c6)cc5c43)cc2C(F)(F)F)CC1` showed a % of control [4] of 5.8%.
`CNC(=O)Nc1ccc(-c2nc(N3CC4CCC(C3)O4)c3cnn(C4CCC5(CC4)OCCO5)c3n2)cc1` showed a % of inhibition [5] of 1% and a % of control [6] of 88%.
`COc1cc(C(=O)N2CC[C@@H](O)[C@@H](N)C2)cc2nc(-c3cc4ccccc4n3CC3CC3)n(C)c12` was tested, and the pXC50 (Mu-type opioid receptor) was < 4 M.
`Cn1cc(-n2cnc3c(NCc4nc5cc(Cl)c(Cl)cc5[nH]4)nc(N4CCOCC4)nc32)cn1` showed a % of control [7] of 8.16%.
With `C=CC(=O)Nc1cccc(C(=O)Nc2ccc(Nc3cc(-c4[nH]c(SC)nc4C)ccn3)cc2)c1` the % of control [8] was 96%.
